# Results published in patent EP1147083B1, “ARYLPIPERAZINYL-CYCLOHEXYL INDOLE DERIVATIVES FOR THE TREATMENT OF DEPRESSION” (Wyeth, priority 1999, dated 2000).
# Read-outs that look alike come from different tables or passages of the source.
# What was measured:
# serotonin transporter = target: T1, serotonin transporter (Rattus norvegicus, UniProt P31652); assay: Serotonin transporter affinity, 3H-paroxetine binding to frontal cortical membranes; set-up: species or system male Sprague-Dawley rats
# T1 construct: from tissue; host or cells: frontal cortex of male Sprague-Dawley rats
# T1 sequence (P31652 whole entry): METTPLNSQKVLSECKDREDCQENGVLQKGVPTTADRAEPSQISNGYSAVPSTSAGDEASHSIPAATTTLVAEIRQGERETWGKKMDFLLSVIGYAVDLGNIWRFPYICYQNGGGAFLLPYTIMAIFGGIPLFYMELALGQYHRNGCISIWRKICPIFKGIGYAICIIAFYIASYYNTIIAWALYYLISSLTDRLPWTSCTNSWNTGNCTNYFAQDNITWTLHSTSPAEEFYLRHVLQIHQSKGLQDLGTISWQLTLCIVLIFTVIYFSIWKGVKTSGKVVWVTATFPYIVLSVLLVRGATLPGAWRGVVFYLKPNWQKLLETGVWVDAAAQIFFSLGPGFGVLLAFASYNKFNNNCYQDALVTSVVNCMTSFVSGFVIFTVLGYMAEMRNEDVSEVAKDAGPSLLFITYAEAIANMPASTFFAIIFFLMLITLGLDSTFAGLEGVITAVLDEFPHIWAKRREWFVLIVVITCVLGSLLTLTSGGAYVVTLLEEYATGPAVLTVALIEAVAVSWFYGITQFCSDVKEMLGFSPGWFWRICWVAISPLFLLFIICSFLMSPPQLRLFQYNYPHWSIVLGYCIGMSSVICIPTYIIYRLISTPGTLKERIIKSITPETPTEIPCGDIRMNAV
# Protocol: Briefly, frontal cortical membranes prepared from male Sprague-Dawley rats were incubated with ^3H-paroxetine (0.1 nM) for 60 minutes at 25°C. […] All reactions are terminated by the addition of ice cold Tris buffer followed by rapid filtration using a Tom Tech filtration device to separate bound from free ^3H-paroxetine.
# [1] = target: T2, human 5-HT1A receptor subtype (5-HT1A.CHO cells) (Homo sapiens, UniProt P08908); assay: cAMP formation in forskolin-treated cells (cAMP SPA assay); assay type: cell-based; settings: value in brackets; forskolin 1 uM
# T2 construct: expressed in transfected cells
# T2 sequence (P08908 1-422): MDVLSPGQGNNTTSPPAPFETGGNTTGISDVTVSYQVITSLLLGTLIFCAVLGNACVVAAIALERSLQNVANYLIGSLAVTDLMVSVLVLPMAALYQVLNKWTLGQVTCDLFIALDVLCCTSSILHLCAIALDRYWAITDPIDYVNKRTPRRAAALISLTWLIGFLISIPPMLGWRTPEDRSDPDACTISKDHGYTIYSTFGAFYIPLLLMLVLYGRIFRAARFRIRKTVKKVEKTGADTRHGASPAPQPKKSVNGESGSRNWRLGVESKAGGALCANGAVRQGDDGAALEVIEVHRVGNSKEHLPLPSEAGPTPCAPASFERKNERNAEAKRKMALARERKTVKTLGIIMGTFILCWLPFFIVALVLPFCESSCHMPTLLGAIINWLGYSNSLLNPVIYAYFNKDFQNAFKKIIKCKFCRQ
# Protocol: (§1) The PCR cloning of the human 5-HT1A receptor subtype from a human genomic library has been described previously Chanda et al., Mol. Pharmacol., 43:516 (1993). A stable Chinese hamster ovary cell line expressing the human 5-HT1A receptor subtype (5-HT1A.CHO cells) was employed throughout this study. Cells were maintained in DMEM supplemented with 10% foetal calf serum, non-essential amino acids and penicillin/ streptomycin.
# The following assays were performed by incubating the cells with DMEM containing 25 mM HEPES, 5 mM theophylline and 10 µM pargyline for a period of 20 minutes at 37°C. Functional activity was assessed by treating the cells with forskolin (1 uM final concentration) followed immediately by test compound (6 concentrations) for an additional 10 minutes at 37°C. In separate experiments, 6 concentrations of antagonist were preincubated for 20 minutes prior to the addition of 10 nM 8-OH-DPAT and forskolin. The reaction was terminated by removal of the media and addition of 0.5 ml ice cold assay buffer. Plates were stored at -20°C prior to assessment of cAMP formation by a cAMP SPA assay (Amersham).
# [2] = target: T3, human 5-HT1A receptor subtype (Homo sapiens, UniProt P08908); assay: 5-HT1A receptor binding assay with [3H]8-OH-DPAT on CHO cell membranes; settings: [3H]8-OH-DPAT 1.5 nM
# T3 construct: expressed in transfected cells
# T3 sequence (P08908 1-422): T2 sequence (P08908 1-422)
# Protocol: as §1
# Cells were grown to 95-100% confluency as a monolayer before membranes were harvested for binding studies. Cells were gently scraped from the culture plates, transferred to centrifuge tubes, and washed twice by centrifugation (2000 rpm for 10 min., 4°C) in buffer (50 mM Tris; pH 7.5). The resulting pellets were aliquoted and placed at -80°C. On the day of assay, the cells were thawed on ice, and resuspended in buffer. Studies were conducted using [^3H]8-OH-DPAT as the radioligand. The binding assay was performed in 96 well microtiter plates in a final total volume of 250 µL of buffer. Competition experiments were performed by using 7 concentrations of unlabelled drug and a final ligand concentration of 1.5 nM. Nonspecific binding was determined in the presence of 10 µM 5HT. Saturation analysis was conducted by using [^3H]8-OH-DPAT at concentrations ranging from 0.3-30 nM. Following a 30 minute incubation at room temperature, the reaction was terminated by the addition of ice cold buffer and rapid filtration using a M-96 Brandel Cell Harvester (Gaithersburg, MD) through a GF/B filter presoaked for 30 minutes in 0.5% polyethyleneimine.
# [3] = target: T4, 5-HT1A cloned receptor membrane fragments (Homo sapiens, UniProt P08908); assay: [35S]-GTPγS binding assay; assay type: biochemical; settings: value in brackets, or a lone % in the cell; maximum agonist response defined by excess 8-OH-DPAT; read-out: GTPγS (%EMax)
# T4 construct: expressed in transfected cells
# T4 sequence (P08908 1-422): T2 sequence (P08908 1-422)
# Protocol: The [^35S]-GTPγS binding assay was similar to that used by Lazareno and Birdsall, Br. J. Pharmacol. 109:1120 (1993). Briefly, 5-HT1A cloned receptor membrane fragments (as used for 5-HT1A receptor binding assays) were stored at -70°C until needed. When needed, membranes were rapidly thawed, centrifuged at 40,000 x g for 10 minutes and resuspended at 4 °C for 10 minutes in assay buffer (25 mM HEPES, 3 mM MgCl2, 100 mM NaCl, 1 mM EDTA, 10 uM GDP, […], pH 8.0). These membranes were then incubated for 30 minutes at 30°C with [^35S]GTPgS (1 nM) in the presence of vehicle, test compound (one to eight concentrations), or excess 8-OH-DPAT to define maximum agonist response. All reactions are terminated by the addition of ice cold Tris buffer followed by rapid filtration using a Tom Tech® filtration device to separate bound from free [^35S]GTPgS. Agonists produce an increase in the amount of [^35S]GTPgS bound whereas antagonists produce no increase in binding. Bound radioactivity was counted and analyzed as above.
# [4] = 3H-paroxetine 0.1 nM, rat frontal cortical membranes, read-out: ST (Kj, nM,)
SMILES,Ki (serotonin transporter; [4]),Emax [1],Ki [2],Emax [3],Ki (serotonin transporter)
"COc1ccc(F)cc1N1CCN([C@H]2CC[C@H](c3c[nH]c4ccc(F)cc43)CC2)CC1 [Example 22b, 5-Fluoro-3-{(trans)-4-[4-(5-fluoro-2-methoxy-phenyl)-piperazin-1-yl]-cyclohexyl}-1H-indole]",36.5 nM,0%,11.6 nM,4.5%,
"COc1ccccc1N1CCN([C@H]2CC[C@@H](c3c[nH]c4ccc(F)cc43)CC2)CC1 [Example 18, 5-Fluoro-3-{(cis)-4-[4-(2-methoxy-phenyl)-piperazin-1-yl] -cyclohexyl}-1H-indole]",1.36 nM,,129 nM,,
"Cn1ccc2c(N3CCN([C@H]4CC[C@@H](c5cn(C)c6cc(F)ccc65)CC4)CC3)cccc21 [Example 11, 6-Fluoro-1-methyl-3-{cis-4-[4-(1-methyl-1H-indol-4-yl)-1-piperazinyl]cyclohexyl}-1H-indole]",40 nM,,,,
"Clc1ccc2[nH]cc([C@H]3CC[C@@H](N4CCN(c5cccc6[nH]ccc56)CC4)CC3)c2c1 [Example 6a, 5-Chloro-3-[cis-4-[4-(1H-indol-4-yl)-1-piperazinyl]cyclohexyl]-1H-indole]",28 nM,80%,326 nM,53%,
"COc1ccc(F)cc1N1CCN([C@H]2CC[C@@H](c3c[nH]c4ccc(F)cc43)CC2)CC1 [Example 22a, 5-Fluoro-3-{(cis)-4-[4-(5-fluoro-2-methoxy-phenyl)-piperazin-1-yl]-cyclohexyl}-1H-indole]",4.96 nM,0%,80.7 nM,0%,
"COc1ccccc1N1CCN(C2CC=C(c3c[nH]c4ccc(F)cc34)CC2)CC1 (stereo not drawn) [Example 35, 5-Fluoro-3-{4-[4-(2-methoxy-phenyl)-piperazin-1-yl]cyclohex-1-enyl}-1H-indole]",91 nM,,70.1 nM,,
"N#Cc1ccc2[nH]cc(C3=CCC(N4CCN(c5cccc6[nH]ccc56)CC4)CC3)c2c1 (stereo not drawn) [Example 36, 3-{4-[4-(1H-Indol-4-yl)-piperazin-1-yl]-cyclohex-1-enyl}-1H-indole-5-carbonitrile]",28 nM,80%,12.3 nM,53%,
"Fc1cc2c(c(N3CCN([C@H]4CC[C@@H](c5c[nH]c6ccc(F)cc65)CC4)CC3)c1)OCCC2 [Example 31a, 5-Fluoro-3-{(1,4-cis)-4-[4-(6-fluoro-chroman-8-yl)-piperazin-1-yl]-cyclohexyl}-1H-indole]",,,142 nM,,13 nM
"Cn1cc([C@H]2CC[C@@H](N3CCN(c4cccc5[nH]ccc45)CC3)CC2)c2cc(F)ccc21 [Example 38, 5-Fluoro-3-{cis-4-[4-(1H-indol-4-yl)-piperazinyl]-cyclohexyl}-1-methyl-1H-indole]",,,,,7.22 nM
